Where a name gives a salt, the structure may show the parent alone.
Experiments:
[1] = test system: α-SMA; assay: α-SMA expression in lung fibroblasts isolated from drug-treated bleomycin-injured mice (Western); assay type: in vivo; settings: 6 mg/kg IP or oral gavage for 21 days
Excerpt: C57BL/6J mice were given intratracheal (IT) saline or bleomycin on day 1. […] Fibroblasts were isolated from lung explants on day 14 and expanded in in vitro cell culture. Cells were lysed in RIPA buffer at passage 2 and 90% confluency. Cell lysates were subjected to sodium dodecyl sulfate polyacrylamide gel electrophoresis and immunoblotted with antibodies against α-SMA (a marker of myofibroblast differentiation), phospho-S^473 Akt, and phospho-Y^397 FAK.
Fibroblasts were isolated from lung explants on day 14 and expanded in in vitro cell culture, initially in the presence of 10% fetal bovine serum and then in the absence of serum for 24 h. Cell lysates were obtained and subjected to SDS-PAGE and immunoblotted with antibodies against the proteins indicated.
Mice were treated with Gleevec by IP injection (6 mg/kg) or oral gavage (6 mg/kg) for 21 days. Fibroblasts were isolated from lung explants and cell lysates subjected to SDS-PAGE and immunoblotted for α-SMA. Blots were stripped and re-probed for α-tubulin. Additionally, the effects of Gleevec on pro-fibrotic signaling of fibroblasts by TGF-α1. […]
To determine the result of systemic administration of AG1879 in stable modulation of signaling/phenotype of fibroblasts and myofibroblasts in vivo, fibroblasts isolated from lungs of bleomycin injured mice were analyzed. […]

[2] = test system: bleomycin-injured mice; assay: Murine model of bleomycin-induced pulmonary fibrosis (lung collagen, histology); assay type: in vivo; settings: 6 mg/kg IP or oral gavage for 21 days
Excerpt: Mice were given intratracheal bleomycin (BL) or saline (control). […] A) Lungs were harvested on day 14 following bleomycin injury and total lung collagen determined as described in “Methods”. […] B) Representative histopathology (hematoxylin and eosin staining, top panels; Masson's trichrome blue staining for collagen, bottom panels) of the lungs of mice intra-tracheally instilled with saline (control) or bleomycin (BL). […] Lungs were examined at day 14 following bleomycin injury.
Tissue sections were stained (H&E, mag 100×) 21 days following bleomycin and 14 days after treatment with NL-71-101.
B6129F2/J mice were purchased from Jackson Laboratories, Bar Harbor, Me., and housed under specific pathogen free conditions in enclosed filter top cages. Clean food and water was given ad libitum. The mice were handled and maintained using microisolator techniques with daily veterinarian monitoring. […]
Mice were euthanized by CO2 asphyxiation and perfused via the heart with 5 ml of normal saline. […] Following centrifugation, the pellet was resuspended in 1 ml of alkali reagent, vortexed to release the dye into solution, and 100 μl transferred to a microplate and absorbance measured at 540 nm. Values for experimental samples were calculated based on a standard curve of known concentrations of purified rat tail collagen. […]

[3] = test system: PKB/Akt; assay: TGF-induced PKB/Akt phosphorylation in normal human lung fibroblasts (IMR-90); assay type: cell-based; settings: IMR-90, TGF 2 ng/ml, 24 h
Description: (§1) Mice were treated with Gleevec by IP injection (6 mg/kg) or oral gavage (6 mg/kg) for 21 days. Fibroblasts were isolated from lung explants and cell lysates subjected to SDS-PAGE and immunoblotted for α-SMA. Blots were stripped and re-probed for α-tubulin. Additionally, the effects of Gleevec on pro-fibrotic signaling of fibroblasts by TGF-α1. Normal human lung fibroblasts (IMR-90) were stimulated ±TGF-â1 (2 ng/ml) Gleevec at the doses indicated for 24 h. Cell lysates were then subjected to SDS-PAGE and immunoblotted for specific antibodies to the proteins shown.
(§2) The present invention is not limited to a particular mechanism. Indeed, an understanding of the mechanism is not necessary to practice the present invention.

[4] = test system: FAK; assay: TGF-induced FAK phosphorylation in normal human lung fibroblasts (IMR-90); assay type: cell-based; settings: IMR-90, TGF 2 ng/ml, 24 h
Description: as §1, §2

[5] = test system: ERK-1/2 MAPK; assay: Baseline ERK-1/2 MAPK phosphorylation in normal human lung fibroblasts (IMR-90); assay type: cell-based; settings: IMR-90, 24 h, doses indicated in FIG. 9
Description: as §1, §2

[6] = test system: α-SMA; assay: α-SMA expression in normal human lung fibroblasts (IMR-90) ± TGF (Western); assay type: cell-based
Description: as §1
The present invention is not limited to a particular mechanism. Indeed, an understanding of the mechanism is not necessary to practice the present invention. […] Furthermore, these observations emphasize the importance of defining the modulation of fibroblast phenotypes/signaling both in vitro and in vivo.

[7] = test system: PKB/Akt; assay: Constitutive PKB/Akt phosphorylation in IPF fibroblasts (Western immunoblot); assay type: cell-based, human; settings: 16 h prior to cell lysis
Excerpt: (§3) Cell lysates were then subjected to SDS-PAGE and immunoblotted with specific antibodies against phospho-S^473 Akt and phospho-Y^397 FAK; blots were stripped and re-probed for total Akt and FAK, respectively.
(§4) Research protocols involving human subjects received prior approval by the Institutional Review Board at the University of Michigan. […] Fibroblasts were also isolated from normal-appearing lung tissue sections surgically removed from patients undergoing evaluation for suspected lung cancer. Cells were cultured in medium consisting of Dulbecco's modified Eagle's medium (DMEM; GIBCO, Grand Island, N.Y.) supplemented with 10% fetal bovine serum (FBS; Sigma, St. Louis, Mo.), 100 U/ml penicillin/streptomycin (Sigma, St. Louis Mo.), and fungizone (GIBCO, Grand Island, N.Y.); medium was changed every two days. Passage 3-5 fibroblasts were plated on 60 mm cell culture dishes at a density of 5×10^5 cells/dish and incubated at 37° C. in 5% CO2-95% air. When cells reached 80% confluence, they were growth-arrested for 48 hours in DMEM with 0.01% FBS prior to treatment with/without TGF-β1.
(§5) Porcine-derived TGF-β1 was obtained from R&D Systems, Minneapolis, Minn. All other cell culture reagents were from Sigma, St Louis, Mo. […] Drugs were initially solubilized in DMSO to make a 30 mM “stock” concentration. […]

[8] = test system: FAK; assay: TGF-β1-induced FAK phosphorylation in normal fibroblasts (Western immunoblot); assay type: cell-based, human; settings: TGF-β1 2 ng/ml, 10 μM drug co-treated, 16 h
Excerpt: as §3, §4, §5

[9] = test system: PKB/Akt; assay: TGF-β1-induced PKB/Akt phosphorylation in normal fibroblasts (Western immunoblot); assay type: cell-based, human; settings: TGF-β1 2 ng/ml, 10 μM drug co-treated, 16 h
Excerpt: as §3, §4, §5

Cc1ccc(NC(=O)c2ccc(CN3CCN(C)CC3)cc2)cc1Nc1nccc(-c2cccnc2)n1 [Gleevec, imatinib mesylate]
expression of α-SMA in lung fibroblasts cultured from treated mice [1]: enhanced expression | efficacy as an anti-fibrotic agent [2]: not to be effective | TGF-α1-induced phosphorylation/activation of PKB/Akt [3]: promoted/enhanced | TGF-α1-induced phosphorylation/activation of FAK [4]: promoted/enhanced | baseline phosphorylation of ERK-1/2 MAPK [5]: dose-dependently enhanced | baseline α-SMA expression ([6]; IMR-90, 24 h, no TGF): modest reductions | TGF-α1-induced α-SMA expression ([6]; IMR-90, TGF 2 ng/ml, 24 h): does not inhibit

Nc1ncnc2c1cnn2-c1ccccc1 [c/AG, 4-Amino-7-phenylpyrazol[3,4-d]pyramidine]
inhibition of constitutive PKB/Akt phosphorylation at 10 μM [7]: no effect | inhibition of TGF-β1-induced FAK phosphorylation [8]: no effect | inhibition of TGF-β1-induced PKB/Akt phosphorylation [9]: no effect
